Experimental data published in patent US12162858B2, “Quinoline derivatives as inhibitors of AXL/MER RTK and CSF1R” (QURIENT CO., LTD., priority 2018, dated 2024).
Read-outs that look alike come from different tables or passages of the source.

How the values were obtained:
CSF1R (M-NFS-60 cells) = assay: Cell Titer-Glo viability assay using M-NFS-60 cells; assay type: cell-based; details: Mus musculus, read-out: Cellular CSF1R activity by M-NFS-60 viability assay (IC50 activity range)
Description: M-NFS-60 cells were cultured in RPMI-1640 medium containing 10% FBS, 0.05 mM 2-Mercaptoethanol, penicillin (100 U/ml)/streptomycin ([…]) and supplemented with 62 ng/ml recombinant human M-CSF at 37° C./5% CO2. Aliquots of the cells were seeded into a 96-well plate (2×10^5 cells in 100 μl/well) and then incubated at 37° C./5% CO2 1 h. Dissolve compound in 100% DMSO to make 10 mM stock solutions (Aliquots stored in the Nitrogen Cabinet). Dilute 10 mM compounds solutions for 2-fold in 100% DMSO to get 5 mM solutions (10 μl+10 μl DMSO), and then make a 3-fold serial dilution (10 μl+20 μl DMSO) for 10 doses. For reference compounds: Dilute 10 mM compounds solutions for 20-fold in 100% DMSO to get 0.5 mM solutions (2 μl+38 μl DMSO), and then make a 3-fold serial dilution (10 μl+20 μl DMSO) for 8 doses. The 96-well plate was equilibrated at room temperature for 30 min. 50 μl of CellTiter-Glo® Reagent added to each well and mixed for 2 min on an orbital shaker to induce cell lysis. The 96-well plate was incubated at room temperature for 10 min to stabilize luminescent signal. Luminescent was measured […] by EnVison plate reader. Calculations and Formulas: The following calculations and formulas are used for data analysis using XL Fit software: The curve fitting was made using the Sigmoidal Dose-Response Model (Fit model, 205).

Mer = target: T1, Mer (Homo sapiens, UniProt Q12866); assay: LanthaScreen Eu kinase binding assay for Mer
T1 construct: purchased Life Technologies
T1 sequence (Q12866 21-999): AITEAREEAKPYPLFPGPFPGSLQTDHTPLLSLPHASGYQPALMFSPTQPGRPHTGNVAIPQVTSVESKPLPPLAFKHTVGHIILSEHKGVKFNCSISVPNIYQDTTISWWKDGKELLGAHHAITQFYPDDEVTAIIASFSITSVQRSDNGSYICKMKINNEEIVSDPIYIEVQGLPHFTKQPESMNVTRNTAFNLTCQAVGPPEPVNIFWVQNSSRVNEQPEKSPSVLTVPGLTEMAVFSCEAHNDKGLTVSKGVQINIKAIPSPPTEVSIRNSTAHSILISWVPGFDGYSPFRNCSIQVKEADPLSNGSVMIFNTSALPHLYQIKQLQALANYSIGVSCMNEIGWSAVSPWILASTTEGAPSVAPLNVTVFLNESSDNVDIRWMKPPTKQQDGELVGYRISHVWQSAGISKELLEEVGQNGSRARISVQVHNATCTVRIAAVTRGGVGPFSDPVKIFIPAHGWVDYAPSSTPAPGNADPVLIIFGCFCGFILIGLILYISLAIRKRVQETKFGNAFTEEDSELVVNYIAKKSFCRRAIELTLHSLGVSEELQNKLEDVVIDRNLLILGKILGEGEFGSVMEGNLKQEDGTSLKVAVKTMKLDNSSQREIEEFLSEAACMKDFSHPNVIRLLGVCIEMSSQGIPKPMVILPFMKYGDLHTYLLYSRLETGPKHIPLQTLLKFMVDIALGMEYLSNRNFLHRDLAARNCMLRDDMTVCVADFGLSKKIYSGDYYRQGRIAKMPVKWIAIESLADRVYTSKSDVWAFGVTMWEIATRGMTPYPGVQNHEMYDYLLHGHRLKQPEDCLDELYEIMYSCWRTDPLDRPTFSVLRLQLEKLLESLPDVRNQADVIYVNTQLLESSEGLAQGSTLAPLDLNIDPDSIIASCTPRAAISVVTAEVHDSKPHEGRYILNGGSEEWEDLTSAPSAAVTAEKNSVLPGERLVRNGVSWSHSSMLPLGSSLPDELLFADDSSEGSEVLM
Description: LanthaScreen® Eu Kinase Binding assays were conducted at Life Technologies using the manufacturer's specifications for each kinase indicated.
Briefly, the principle behind this assay is based upon the binding and displacement of an Alexa Fluor 647-labeled tracer to the kinase of interest. Binding of the tracer to the kinase is detected using an EU-labeled anti-tag antibody. Simultaneous binding of both the tracer and antibody to the kinase gives rise to a FRET-signal. Binding of an inhibitor to the kinase competes for binding with the tracer, resulting in a loss of FRET-signal.
A given compound was diluted in DMSO to make a stock compound solution. The stock compound solution was serially diluted over eight steps in DMSO. Each diluted compound solution in DMSO was diluted in kinase buffer. Afterwards four kinds of working solution were prepared. First, Tracer-Working solution consists of Tracer 236 and Kinase Buffer. Second, Axl, Mer, Tyro3 or Met/anti-GST-AB-Working solution contained one of the kinases Axl, and Mer or anti-GST-AB (=anti glutathione-S-transferase antibody) in Kinase Buffer. Third, anti-GST-AB-Working solution was made with anti-GST-AB and Kinase Buffer. Last, in the DMSO-Working solution DMSO was added to Kinase Buffer to a final concentration to 3%. Each of the four kinds of working solutions were separately added to the assay plate and then incubated for 1 h at room temperature. After incubation, the assay plate was measured with respect to the FRET-Signal with the EnVision (Perkin Elmer) using the program LanthaHTRF-Assay. Data evaluation was done in the Quattro Workflow software. Kd (the equilibrium dissociation constant) values were calculated relative to vehicle (DMSO) control wells.

[1] = comparison of compounds of present invention (**) vs compounds of WO2016/166250 (*), read-out: Binding activity Mer (Kd)
[2] = read-out: Mer kinase binding activity (Kd)

Compound	Kd (Mer; [1]) [nM]	Kd (Mer; [2]) [nM]	IC50 (CSF1R (M-NFS-60 cells)) [nM]
CCn1cc(OCC(F)(F)F)c(C(=O)Nc2ccc(Oc3ccnc4cc(OC)c(OC)cc34)cn2)n1 [Compound 4]	1.6	< 100	< 1000
CCn1cc(OC(C)C)c(C(=O)Nc2ccc(Oc3ccnc4cc(OC)c(OC)cc34)cn2)n1 [Compound 6]	–	< 100	< 1000
CNCCn1cc(OCC(F)(F)F)c(C(=O)Nc2ccc(Oc3ccnc4cc(OC)c(OC)cc34)cn2)n1 [Compound 11]	–	< 100	< 1000
COc1cc2nccc(Oc3ccc(NC(=O)c4nn(CC5COC5)cc4OCC(F)(F)F)nc3)c2cc1OC [Compound 92]	1.3	< 100	< 1000
COc1cc2nccc(Oc3ccc(NC(=O)c4nn(C5CCN(C)C5)cc4OCC(F)(F)F)cc3C)c2cc1OC (stereo not shown) [Compound 98]	–	< 100	1000 to 10000
COc1cc2nccc(Oc3ccc(NC(=O)c4nn(CC(C)C)cc4OCC(F)(F)F)cn3)c2cc1OC [Compound 103]	–	< 100	1000 to 10000
CCCn1cc(OCC2COC2)c(C(=O)Nc2ccc(Oc3ccnc4cc(OC)c(OC)cc34)cn2)n1 [Compound 106]	–	< 100	< 1000
COCCOc1cn(C2CC2)nc1C(=O)Nc1ccc(Oc2ccnc3cc(OC)c(OC)cc23)cn1 [Compound 107]	–	< 100	1000 to 10000
COc1cc2nccc(Oc3ccc(NC(=O)c4nn(C5CC5)cc4OC(C)C)nc3)c2cc1OC [Compound 108]	–	< 100	< 1000
COc1cc2nccc(Oc3ccc(NC(=O)c4nn(C5CC5)cc4OCC(F)F)nc3)c2cc1OC [Compound 109]	–	< 100	< 1000
COc1cc2nccc(Oc3ccc(NC(=O)c4nn(C5CC5)cc4OCCF)nc3)c2cc1OC [Compound 110]	–	< 100	< 1000
COc1cc2nccc(Oc3ccc(NC(=O)c4nn(C5CC5)cc4OCC4CCC4)nc3)c2cc1OC [Compound 111]	–	< 100	1000 to 10000
COc1cc2nccc(Oc3ccc(NC(=O)c4nn(C5CC5)cc4OCCF)nn3)c2cc1OC [Compound 113]	–	< 100	1000 to 10000
COc1cc2nccc(Oc3ccc(NC(=O)c4nn(CCOC5CC5)cc4OCC(F)(F)F)cc3F)c2cc1OC [Compound 116]	–	< 100	1000 to 10000
COc1cc2nccc(Oc3ccc(NC(=O)c4nn(CCOC5CC5)cc4OCC(F)(F)F)cc3)c2cc1OC [Compound 118]	–	< 100	1000 to 10000
CNCCn1cc(OCC(F)(F)F)c(C(=O)Nc2ccc(Oc3ccnc4cc(OC)c(OC)cc34)cc2)n1 [Compound 119]	–	100 to 500	1000 to 10000
COc1cc2nccc(Oc3ccc(NC(=O)c4nn(CC5COC5)cc4OCC(F)(F)F)nn3)c2cc1OC [Compound 123]	–	< 100	1000 to 10000
COc1cc2nccc(Oc3ccc(NC(=O)c4nn(CC(C)C)cc4OCC(F)(F)F)nn3)c2cc1OC [Compound 124]	–	< 100	1000 to 10000

Continued, in another order:

Kd (Mer; [1]) [nM]	Kd (Mer; [2]) [nM]	Compound	IC50 (CSF1R (M-NFS-60 cells)) [nM]
–	< 100	CCCn1cc(OCC(F)(F)F)c(C(=O)Nc2ccc(Oc3ccnc4cc(OC)c(OC)cc34)cn2)n1 [Compound 7]	< 1000
–	< 100	CCn1cc(OCC2CCC2)c(C(=O)Nc2ccc(Oc3ccnc4cc(OC)c(OC)cc34)cn2)n1 [Compound 8]	< 1000
–	< 100	COc1cc2nccc(Oc3ccc(NC(=O)c4nn(CCN(C)C)cc4OCC(F)(F)F)nc3)c2cc1OC [Compound 9]	< 1000
0.2	< 100	COCCn1cc(OCC(F)(F)F)c(C(=O)Nc2ccc(Oc3ccnc4cc(OC)c(OC)cc34)cn2)n1 [Compound 10]	< 1000
–	< 100	CCCn1cc(OCC(F)F)c(C(=O)Nc2ccc(Oc3ccnc4cc(OC)c(OC)cc34)cn2)n1 [Compound 12]	< 1000
12	< 100	COc1cc2nccc(Oc3ccc(NC(=O)c4n[nH]cc4OCC(F)(F)F)nc3)c2cc1OC [Compound 16]	< 1000
–	< 100	COc1cc2nccc(Oc3ccc(NC(=O)c4nn(C5CCN(C)C5)cc4OCC(F)(F)F)cc3F)c2cc1OC (stereo not shown) [Compound 96]	1000 to 10000
–	< 100	COc1cc2nccc(Oc3ccc(NC(=O)c4nn(CC5COC5)cc4OCC(F)(F)F)cc3F)c2cc1OC [Compound 97]	1000 to 10000
–	< 100	COc1cc2nccc(Oc3ccc(NC(=O)c4nn(CC5COC5)cc4OCC(F)(F)F)cc3C)c2cc1OC [Compound 99]	1000 to 10000
–	< 100	COc1cc2nccc(Oc3ccc(NC(=O)c4nn(C5CCN(C)C5)cc4OCC(F)(F)F)cc3)c2cc1OC (stereo not shown) [Compound 100]	1000 to 10000
–	< 100	COc1cc2nccc(Oc3ccc(NC(=O)c4nn(CC5COC5)cc4OCC(F)(F)F)cc3)c2cc1OC [Compound 101]	1000 to 10000
–	< 100	COc1cc2nccc(Oc3ccc(NC(=O)c4nn(C)cc4OCC(F)(F)F)nn3)c2cc1OC [Compound 102]	1000 to 10000
–	< 100	COCCn1cc(OCC(F)(F)F)c(C(=O)Nc2ccc(Oc3ccnc4cc(OC)c(OC)cc34)nc2)n1 [Compound 104]	≥ 10000
–	< 100	CCCn1cc(OCCOC)c(C(=O)Nc2ccc(Oc3ccnc4cc(OC)c(OC)cc34)cn2)n1 [Compound 105]	< 1000
–	< 100	COc1cc2nccc(Oc3ccc(NC(=O)c4nn(C5CC5)cc4OCC(F)(F)F)nn3)c2cc1OC [Compound 112]	1000 to 10000
–	< 100	CCCn1cc(OCC(F)(F)F)c(C(=O)Nc2ccc(Oc3ccnc4cc(OC)c(OC)cc34)c(C(F)(F)F)c2)n1 [Compound 114]	1000 to 10000
–	< 100	COc1cc2nccc(Oc3ccc(NC(=O)c4nn(CCOC5CC5)cc4OCC(F)(F)F)c(F)c3)c2cc1OC [Compound 115]	1000 to 10000
–	< 100	COc1cc2nccc(Oc3ccc(NC(=O)c4nn(CCOC5CC5)cc4OCC(F)(F)F)cc3C)c2cc1OC [Compound 117]	< 1000
–	< 100	COc1cc2nccc(Oc3ccc(NC(=O)c4nn(CCOC5CC5)cc4OCC(F)(F)F)nn3)c2cc1OC [Compound 120]	1000 to 10000
–	< 100	COc1cc2nccc(Oc3ccc(NC(=O)c4nn(C5CCCC5)cc4OCC(F)(F)F)nn3)c2cc1OC [Compound 121]	< 1000
–	100 to 500	COc1cc2nccc(Oc3ccc(NC(=O)c4nn(C5CCNC5)cc4OCC(F)(F)F)nn3)c2cc1OC (stereo not shown) [Compound 122]	1000 to 10000
